Assay [1] deals with Somatostatin receptor type 5 (Homo sapiens, UniProt P35346). Description: Binding affinity towards Somatostatin receptor type 5 (hsst5).
Assay [2] addresses Somatostatin receptor type 1 (Homo sapiens, UniProt P30872). In words: Binding affinity towards Somatostatin receptor type 1 (hsst1).
Assay [3] concerns the target Somatostatin receptor type 3 (Homo sapiens, UniProt P32745). Description: Binding affinity towards Somatostatin receptor type 3 (hsst3).
The target of assay [4] is Somatostatin receptor type 4 (Homo sapiens, UniProt P31391). In words: Binding affinity towards Somatostatin receptor type 4 (hsst4).
In assay [5] the target is T1, Angiotensin-converting enzyme (Homo sapiens, UniProt P12821). In words: Inhibitory activity against Angiotensin I converting enzyme (ACE) in venom of Bothrops jararaca. It is filed as tissue-based.
Assay [6] deals with Growth hormone secretagogue receptor type 1 (Homo sapiens, UniProt Q92847). Description: Ability to displace [125I]ghrelin from cloned human Growth hormone secretagogue receptor type I (GSH1a) expressed in COS-7 cells. It is filed as cell-based.
Assay [7] has as its target T1, Angiotensin-converting enzyme. In words: Inhibition of Angiotensin I converting enzyme (ACE) in Bothrops jararaca venom.
A short description of assay [8]: The compound was evaluated for the inhibition of Glycolate oxidase.
The target of assay [9] is T1, Angiotensin-converting enzyme. Description: The compound was evaluated for the (%) inhibition of Angiotensin I converting enzyme in venom of Bothrops jararaca at the dose of 10e-4 M. The assay is classed as tissue-based.

Where a SMILES comes first, the peptide text is derived from it. The star is where a group is joined. Octanoyl = CCCCCCCC(=O)*

The results in this text go back to ChEMBL document CHEMBL1135683, “2002 Alfred Burger Award Address in Medicinal Chemistry. Natural products and design: interrelated approaches in drug discovery” (J Med Chem, 2002).

T1 sequence (P12821 whole entry): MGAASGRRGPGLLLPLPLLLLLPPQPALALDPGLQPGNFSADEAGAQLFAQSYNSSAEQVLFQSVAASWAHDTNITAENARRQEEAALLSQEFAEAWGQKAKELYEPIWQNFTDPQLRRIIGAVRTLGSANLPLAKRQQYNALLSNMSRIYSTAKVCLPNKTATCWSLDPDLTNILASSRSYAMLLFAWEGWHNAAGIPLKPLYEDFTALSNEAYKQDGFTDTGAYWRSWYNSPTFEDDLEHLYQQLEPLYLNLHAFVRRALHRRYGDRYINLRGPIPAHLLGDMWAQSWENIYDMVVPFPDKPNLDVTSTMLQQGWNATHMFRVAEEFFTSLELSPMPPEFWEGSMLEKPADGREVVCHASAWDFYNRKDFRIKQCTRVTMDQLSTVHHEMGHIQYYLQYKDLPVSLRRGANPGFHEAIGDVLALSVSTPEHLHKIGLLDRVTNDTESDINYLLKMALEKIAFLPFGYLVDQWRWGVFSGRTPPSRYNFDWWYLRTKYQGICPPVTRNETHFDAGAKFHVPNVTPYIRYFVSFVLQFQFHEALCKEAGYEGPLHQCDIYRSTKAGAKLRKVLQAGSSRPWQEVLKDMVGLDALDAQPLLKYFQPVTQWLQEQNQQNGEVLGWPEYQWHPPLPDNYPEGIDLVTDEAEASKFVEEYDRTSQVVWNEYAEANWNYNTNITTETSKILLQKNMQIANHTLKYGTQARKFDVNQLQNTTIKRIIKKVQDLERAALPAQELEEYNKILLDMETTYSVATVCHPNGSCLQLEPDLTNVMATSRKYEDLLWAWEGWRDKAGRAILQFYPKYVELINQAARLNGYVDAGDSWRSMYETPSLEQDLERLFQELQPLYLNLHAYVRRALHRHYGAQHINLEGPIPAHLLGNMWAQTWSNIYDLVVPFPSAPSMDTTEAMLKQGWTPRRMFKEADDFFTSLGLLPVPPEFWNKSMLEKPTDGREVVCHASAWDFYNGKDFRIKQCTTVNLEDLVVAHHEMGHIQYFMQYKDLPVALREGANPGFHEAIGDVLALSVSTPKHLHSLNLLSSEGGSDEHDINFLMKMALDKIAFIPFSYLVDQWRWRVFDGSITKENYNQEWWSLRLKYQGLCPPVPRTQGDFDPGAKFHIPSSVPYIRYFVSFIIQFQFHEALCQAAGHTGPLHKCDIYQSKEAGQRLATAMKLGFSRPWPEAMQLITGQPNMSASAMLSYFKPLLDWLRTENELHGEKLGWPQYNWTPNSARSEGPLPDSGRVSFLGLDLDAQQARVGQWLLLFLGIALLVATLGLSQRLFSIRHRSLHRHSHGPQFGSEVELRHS
Sequence of Growth hormone secretagogue receptor type 1 (Q92847 whole entry): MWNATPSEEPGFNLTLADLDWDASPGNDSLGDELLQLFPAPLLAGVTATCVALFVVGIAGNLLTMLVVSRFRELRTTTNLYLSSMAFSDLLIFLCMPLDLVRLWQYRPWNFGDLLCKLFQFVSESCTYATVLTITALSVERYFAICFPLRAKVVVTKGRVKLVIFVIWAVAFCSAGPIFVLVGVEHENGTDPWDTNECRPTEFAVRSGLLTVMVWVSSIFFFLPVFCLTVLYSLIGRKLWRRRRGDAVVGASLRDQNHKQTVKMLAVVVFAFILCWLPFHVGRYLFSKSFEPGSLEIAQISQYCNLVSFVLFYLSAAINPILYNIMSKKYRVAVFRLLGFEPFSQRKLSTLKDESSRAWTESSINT
Sequence of Somatostatin receptor type 5 (P35346 whole entry): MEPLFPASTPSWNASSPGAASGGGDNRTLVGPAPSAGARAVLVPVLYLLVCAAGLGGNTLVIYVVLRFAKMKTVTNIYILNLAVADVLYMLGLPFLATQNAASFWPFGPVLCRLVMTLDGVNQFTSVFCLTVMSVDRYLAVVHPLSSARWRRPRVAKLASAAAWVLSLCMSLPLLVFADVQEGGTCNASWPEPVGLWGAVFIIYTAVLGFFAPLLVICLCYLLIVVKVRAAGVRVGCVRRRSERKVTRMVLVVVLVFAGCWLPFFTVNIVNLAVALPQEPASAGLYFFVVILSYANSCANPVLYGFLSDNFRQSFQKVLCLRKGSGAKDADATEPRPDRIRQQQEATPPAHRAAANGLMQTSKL
Sequence of Somatostatin receptor type 1 (P30872 whole entry): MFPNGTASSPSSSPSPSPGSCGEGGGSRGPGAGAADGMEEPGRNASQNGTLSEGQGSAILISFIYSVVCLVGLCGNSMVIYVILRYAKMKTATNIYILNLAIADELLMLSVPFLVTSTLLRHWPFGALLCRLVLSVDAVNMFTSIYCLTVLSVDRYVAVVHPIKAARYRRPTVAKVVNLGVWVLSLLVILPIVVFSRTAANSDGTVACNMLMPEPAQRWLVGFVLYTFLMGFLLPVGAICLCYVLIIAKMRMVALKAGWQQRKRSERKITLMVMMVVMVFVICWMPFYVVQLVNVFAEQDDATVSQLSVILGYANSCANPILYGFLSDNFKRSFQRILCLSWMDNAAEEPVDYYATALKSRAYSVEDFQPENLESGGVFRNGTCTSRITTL
Sequence of Somatostatin receptor type 3 (P32745 whole entry): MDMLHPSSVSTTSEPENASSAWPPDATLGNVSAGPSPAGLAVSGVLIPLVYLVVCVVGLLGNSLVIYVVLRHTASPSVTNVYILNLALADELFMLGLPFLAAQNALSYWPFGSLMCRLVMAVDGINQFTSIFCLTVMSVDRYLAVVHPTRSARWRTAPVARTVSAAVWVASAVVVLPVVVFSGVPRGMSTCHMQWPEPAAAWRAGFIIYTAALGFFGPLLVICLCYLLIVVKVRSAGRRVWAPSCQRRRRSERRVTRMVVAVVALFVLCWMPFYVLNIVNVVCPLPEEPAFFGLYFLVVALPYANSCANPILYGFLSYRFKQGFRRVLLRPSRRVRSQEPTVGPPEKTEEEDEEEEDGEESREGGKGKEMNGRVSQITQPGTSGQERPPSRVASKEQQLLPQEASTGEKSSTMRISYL
Sequence of Somatostatin receptor type 4 (P31391 whole entry): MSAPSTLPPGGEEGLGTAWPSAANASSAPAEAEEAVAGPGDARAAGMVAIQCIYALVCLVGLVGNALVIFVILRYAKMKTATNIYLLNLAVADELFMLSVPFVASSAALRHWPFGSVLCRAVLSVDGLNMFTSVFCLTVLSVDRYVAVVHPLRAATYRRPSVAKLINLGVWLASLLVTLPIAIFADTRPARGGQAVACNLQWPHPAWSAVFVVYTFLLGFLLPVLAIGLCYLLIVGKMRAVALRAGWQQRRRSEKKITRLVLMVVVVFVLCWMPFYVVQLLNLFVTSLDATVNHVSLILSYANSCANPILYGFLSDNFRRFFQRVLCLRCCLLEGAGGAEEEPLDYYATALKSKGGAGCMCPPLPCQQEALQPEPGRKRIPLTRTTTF

`C[C@@H](c1c[nH]c2ccccc12)[C@@H](NC(=O)N1CCC(n2c(=O)[nH]c3ccccc32)CC1)C(=O)N[C@@H](CCCCN)C(=O)OC(C)(C)C`: the Ki (commonly the equilibrium dissociation constant of an inhibitor or competing ligand from its target) in assay [1] was 163 nM; in [2], 2390 nM; in [3], 31 nM; in [4], 81 nM.
Consider `O=CC(Cc1ccccc1)NC(CCc1ccccc1)C(=O)O` (stereo unspecified), for which the Ki in [5] was 50000 nM.
For `CCCCCCCC(=O)OC[C@H](NC(=O)[C@H](CO)NC(=O)CN)C(=O)N[C@@H](Cc1ccccc1)C(=O)N[C@@H](CC(C)C)C(=O)N[C@@H](CO)C(=O)N1CCC[C@H]1C(=O)N[C@@H](CCC(=O)O)C(=O)N[C@@H](Cc1c[nH]cn1)C(=O)N[C@@H](CCC(N)=O)C(=O)N[C@@H](CCCN=C(N)N)C(=O)N[C@H](C(=O)N[C@@H](CCC(N)=O)C(=O)N[C@@H](CCC(N)=O)C(=O)N[C@@H](CCCN=C(N)N)C(=O)N[C@@H](CCCCN)C(=O)N[C@@H](CCC(=O)O)C(=O)N[C@@H](CO)C(=O)N[C@@H](CCCCN)C(=O)N[C@@H](CCCCN)C(=O)N1CCC[C@H]1C(=O)N1CCC[C@H]1C(=O)N1CCC[C@H]1C(=O)N[C@@H](C)C(=O)N[C@@H](CCCCN)C(=O)N[C@@H](CC(C)C)C(=O)N[C@@H](CCC(N)=O)C(=O)N1CCC[C@H]1C(=O)N[C@@H](CCCN=C(N)N)C(=O)O)C(C)C` (H-GSS(Octanoyl)FLSPEHQRVQQRKESKKPPPAKLQPR-OH), the IC50 (usually the midpoint of a concentration-inhibition curve) in assay [6] came to 0.71 nM.
In [7], H-EKWAP-OH displayed an IC50 of 60 nM.
With `O=C(O)/C(O)=C\C(=O)c1ccc(-c2ccc(Br)cc2)cc1`, the IC50 in assay [8] is 60 nM.
`O=C(O)CCC(=O)N1CCC[C@H]1C(=O)O`: the inhibition (usually the change of the read-out against control, counted positive when it falls) in [9] amounted to 43%.
Take `CC(CCC(=O)N1CCC[C@H]1C(=O)O)C(=O)O` (stereo partly specified): it took 260000 nM to reach half-maximal inhibition in [7] (IC50).
On the same count and under the same terms, next, `O=C(O)CCCC(=O)N1CCC[C@H]1C(=O)O`: 70000 nM.
